Tests used:
[1] = molecular target: T1, β 5i (chymotrypsin-like activity) (Homo sapiens, UniProt P20618+P28062); assay: Cell-Based Proteasome subunit activity/selectivity assay, β5i, substrate (ANW)2Rh110; conditions: Ramos cells; substrate (ANW)2Rh110 (β5i); highest concentration tested 20 μM; read-out: Ic50:ramos:ac-(anw)2-r110
T1 construct: protease activity associated with the proteasome complex in cultured cells; endogenous in cells; host or cells: Ramos cells
Description: (§1) Cell-Based Proteasome Activity/Selectivity Assay
(§2) The Cell-Based Proteasome subunit activity/selectivity assay was a panel of 5 fluorogenic assays that independently measured the activity of β5c or β 5i (chymotrypsin-like activity), β 2c/2i (trypsin-like), and β 1c or β 1i (caspase-like) protease activity associated with the proteasome complex in cultured cells. Specifically, the following substrates were used for respective subunit activities: β 1i (PAL)2Rh110, β 1c: (LLE)2 Rh110, β 2c/2i: (KQL)2Rh110, β 5c: (WLA)2Rh110, β 5i: (ANW)2Rh110. The following procedure was followed:
(§3) Added 0.5 μl of 100× 4-fold serial diluted test compounds or DMSO to each well. Highest concentration of compound tested was 20 μM, thus compound serial dilution started from […]. Incubated for 30 minutes at 37° C. Then equilibrated at room temperature for 15 minutes. […] Shaked for one minute @ 700 rpm. Incubated for 120 min at room temperature. Then read the plates with an Envision multilabel plate reader (PerkinElmer) with 500 nm excitation/519 nm emission.

β 1i (caspase-like) = molecular target: T2, β 1i (caspase-like) (Homo sapiens, UniProt P28065+P40306); assay: Cell-Based Proteasome subunit activity/selectivity assay, β1i, substrate (PAL)2Rh110; conditions: Ramos cells; substrate (PAL)2Rh110 (β1i); highest concentration tested 20 μM; read-out: Ic50:ramos:rh110-(pal)2
T2 construct: protease activity associated with the proteasome complex in cultured cells; endogenous in cells; host or cells: Ramos cells
Description: as §1, §2, §3

[2] = molecular target: T3, β5c (chymotrypsin-like activity) (Homo sapiens, UniProt P20618+P28074); assay: Cell-Based Proteasome subunit activity/selectivity assay, β5c, substrate (WLA)2Rh110; conditions: Ramos cells; substrate (WLA)2Rh110 (β5c); highest concentration tested 20 μM; read-out: Ic50:ramos:rh110-(wla)2
T3 construct: protease activity associated with the proteasome complex in cultured cells; endogenous in cells; host or cells: Ramos cells
Description: as §1, §2, §3

β 2c/2i (trypsin-like) = assay: Cell-Based Proteasome subunit activity/selectivity assay, β2c/2i, substrate (KQL)2Rh110; conditions: Ramos cells; substrate (KQL)2Rh110 (β2c/2i); highest concentration tested 20 μM
Description: as §1, §2, §3

β 1c (caspase-like) = molecular target: T4, β 1c (caspase-like) (Homo sapiens, UniProt P28072+Q99436); assay: Cell-Based Proteasome subunit activity/selectivity assay, β1c, substrate (LLE)2Rh110; conditions: Ramos cells; substrate (LLE)2Rh110 (β1c); highest concentration tested 20 μM; read-out: Ic50:ramos:rh110-(lle)2
T4 construct: protease activity associated with the proteasome complex in cultured cells; endogenous in cells; host or cells: Ramos cells
Description: as §1, §2, §3

CCc1ccc(C(C#N)NC(=O)c2cn(CCNC(=O)c3ccc(OC)c(OC)c3OC)nn2)cc1 (single isomer, unassigned) [Example 50]
IC50 [1]: 0.058 µM | IC50 (β 1i (caspase-like)): ≥ 20 µM | IC50 [2]: ≥ 20 µM | IC50 (β 2c/2i (trypsin-like)): ≥ 20 µM | IC50 (β 1c (caspase-like)): ≥ 20 µM

CCc1ccc(C(C#N)NC(=O)c2cn(CCNC(=O)c3ccc(OC)c(OC)c3OC)nn2)cc1 (single isomer, unassigned) [Example 51]
IC50 [1]: 0.604 µM | IC50 (β 1i (caspase-like)): ≥ 20 µM

CCc1ccc(C(C#N)NC(=O)c2cn(CCNC(=O)c3ccc(OC)c(OC)c3OC)nn2)cc1 (stereo not shown) [Example 1, 1-[2-(2,3,4-Trimethoxy-benzoylamino)-ethyl]-1H-[1,2,3]triazole-4-carboxylic acid [cyano-(4-ethyl-phenyl)-methyl]-amide]
IC50 [1]: 0.08 µM | IC50 (β 1i (caspase-like)): ≥ 20 µM | IC50 [2]: ≥ 20 µM | IC50 (β 2c/2i (trypsin-like)): ≥ 20 µM | IC50 (β 1c (caspase-like)): ≥ 20 µM

COc1ccc(C(=O)NCCn2cc(C(=O)NC(C#N)c3ccc(SC)cc3)nn2)c(OC)c1OC (stereo not shown) [Example 2, 1-[2-(2,3,4-Trimethoxy-benzoylamino)-ethyl]-1H-[1,2,3]triazole-4-carboxylic acid [cyano-(4-methylsulfanyl-phenyl)-methyl]-amide]
IC50 [1]: 0.15 µM | IC50 (β 1i (caspase-like)): ≥ 20 µM | IC50 [2]: ≥ 20 µM | IC50 (β 2c/2i (trypsin-like)): ≥ 20 µM | IC50 (β 1c (caspase-like)): ≥ 20 µM

COc1ccc(C(=O)NCCn2cc(C(=O)NCc3ccc(C)cc3)nn2)c(OC)c1OC [Example 3, 1-[2-(2,3,4-Trimethoxy-benzoylamino)-ethyl]-1H-[1,2,3]triazole-4-carboxylic acid 4-methyl-benzylamide]
IC50 [1]: 2.9 µM | IC50 (β 1i (caspase-like)): ≥ 20 µM | IC50 [2]: ≥ 20 µM | IC50 (β 2c/2i (trypsin-like)): ≥ 20 µM | IC50 (β 1c (caspase-like)): ≥ 20 µM

COc1ccc(C(=O)NCCn2cc(C(=O)NCc3ccc(C)c(C)c3)nn2)c(OC)c1OC [Example 4, 1-[2-(2,3,4-Trimethoxy-benzoylamino)-ethyl]-1H-[1,2,3]triazole-4-carboxylic acid 3,4-dimethyl-benzylamide]
IC50 [1]: 4.11 µM | IC50 (β 1i (caspase-like)): ≥ 20 µM | IC50 [2]: ≥ 20 µM | IC50 (β 2c/2i (trypsin-like)): ≥ 20 µM | IC50 (β 1c (caspase-like)): ≥ 20 µM

COc1ccc(C(=O)NCCn2cc(C(=O)NCc3ccc(Cl)cc3)nn2)c(OC)c1OC [Example 5, 1-[2-(2,3,4-Trimethoxy-benzoylamino)-ethyl]-1H-[1,2,3]triazole-4-carboxylic acid 4-chloro-benzylamide]
IC50 [1]: 6.49 µM | IC50 (β 1i (caspase-like)): ≥ 20 µM | IC50 [2]: ≥ 20 µM | IC50 (β 2c/2i (trypsin-like)): ≥ 20 µM | IC50 (β 1c (caspase-like)): ≥ 20 µM

COc1ccc(C(=O)NCCn2cc(C(=O)NCc3ccc(SC)cc3)nn2)c(OC)c1OC [Example 6, 1-[2-(2,3,4-Trimethoxy-benzoylamino)-ethyl]-1H-[1,2,3]triazole-4-carboxylic acid 4-methylsulfanyl-benzylamide]
IC50 [1]: 0.919 µM | IC50 (β 1i (caspase-like)): ≥ 20 µM | IC50 [2]: ≥ 20 µM | IC50 (β 2c/2i (trypsin-like)): ≥ 20 µM | IC50 (β 1c (caspase-like)): ≥ 20 µM

CCc1ccc(CNC(=O)c2cn(CCNC(=O)c3ccc(OC)c(OC)c3OC)nn2)cc1 [Example 7, 1-[2-(2,3,4-Trimethoxy-benzoylamino)-ethyl]-1H-[1,2,3]triazole-4-carboxylic acid 4-ethyl-benzylamide]
IC50 [1]: 1.16 µM | IC50 (β 1i (caspase-like)): ≥ 20 µM | IC50 [2]: ≥ 20 µM | IC50 (β 2c/2i (trypsin-like)): ≥ 20 µM | IC50 (β 1c (caspase-like)): ≥ 20 µM

CCc1ccc(C(C#N)NC(=O)c2cn(CCNC(=O)c3cccc(OC)c3OC)nn2)cc1 (stereo not shown) [Example 16, 1-[2-(2,3-Dimethoxy-benzoylamino)-ethyl]-1H-[1,2,3]triazole-4-carboxylic acid [cyano-(4-ethyl-phenyl)-methyl]-amide]
IC50 [1]: 1.12 µM | IC50 [2]: ≥ 20 µM | IC50 (β 2c/2i (trypsin-like)): ≥ 20 µM | IC50 (β 1c (caspase-like)): ≥ 20 µM

CCc1ccc(C(C#N)NC(=O)c2cn(CCNC(=O)c3ncccc3OC)nn2)cc1 (stereo not shown) [Example 17, 3-Methoxy-pyridine-2-carboxylic acid [2-(4-{[cyano-(4-ethyl-phenyl)-methyl]-carbamoyl}-[1,2,3]triazol-1-yl)-ethyl]-amide]
IC50 [1]: 9.93 µM | IC50 [2]: ≥ 20 µM | IC50 (β 2c/2i (trypsin-like)): ≥ 20 µM | IC50 (β 1c (caspase-like)): ≥ 20 µM

CCc1ccc(C(C#N)NC(=O)c2cn(CCNC(=O)c3cccc4c3OCCO4)nn2)cc1 (stereo not shown) [Example 18, 1-{2-[(2,3-Dihydro-benzo[1,4]dioxine-5-carbonyl)-amino]-ethyl}-1H-[1,2,3]triazole-4-carboxylic acid [cyano-(4-ethyl-phenyl)-methyl]-amide]
IC50 [1]: 0.482 µM | IC50 [2]: ≥ 20 µM | IC50 (β 2c/2i (trypsin-like)): ≥ 20 µM | IC50 (β 1c (caspase-like)): ≥ 20 µM

CCc1ccc(C(C#N)NC(=O)c2cn(CCNC(=O)c3ccc(SC)cc3OC)nn2)cc1 (stereo not shown) [Example 19, 1-[2-(2-Methoxy-4-methylsulfanyl-benzoylamino)-ethyl]-1H-[1,2,3]triazole-4-carboxylic acid [cyano-(4-ethyl-phenyl)-methyl]-amide]
IC50 [1]: 0.111 µM | IC50 [2]: 12 µM | IC50 (β 2c/2i (trypsin-like)): ≥ 20 µM | IC50 (β 1c (caspase-like)): ≥ 20 µM

CCc1ccc(C(C#N)NC(=O)c2cn(CCNC(=O)c3ccc(Cl)cc3OC)nn2)cc1 (stereo not shown) [Example 20, 1-[2-(4-Chloro-2-methoxy-benzoylamino)-ethyl]-1H-[1,2,3]triazole-4-carboxylic acid [cyano-(4-ethyl-phenyl)-methyl]-amide]
IC50 [1]: 0.196 µM | IC50 [2]: ≥ 20 µM | IC50 (β 2c/2i (trypsin-like)): ≥ 20 µM | IC50 (β 1c (caspase-like)): ≥ 20 µM

CCc1ccc(C(C#N)NC(=O)c2cn(CCNC(=O)c3cc(Cl)cc(C)n3)nn2)cc1 (stereo not shown) [Example 21, 4-Chloro-6-methyl-pyridine-2-carboxylic acid [2-(4-{[cyano-(4-ethyl-phenyl)-methyl]-carbamoyl}-[1,2,3]triazol-1-yl)-ethyl]-amide]
IC50 [1]: 2.88 µM | IC50 [2]: ≥ 20 µM | IC50 (β 2c/2i (trypsin-like)): ≥ 20 µM | IC50 (β 1c (caspase-like)): ≥ 20 µM

CCc1ccc(C(C#N)NC(=O)c2cn(CCNC(=O)c3cc(C(F)(F)F)ccc3OC)nn2)cc1 (stereo not shown) [Example 39, 1-[2-(2-Methoxy-5-trifluoromethyl-benzoylamino)-ethyl]-1H-[1,2,3]triazole-4-carboxylic acid [cyano-(4-ethyl-phenyl)-methyl]-amide]
IC50 [1]: 0.517 µM | IC50 (β 1i (caspase-like)): ≥ 20 µM | IC50 [2]: ≥ 20 µM | IC50 (β 2c/2i (trypsin-like)): ≥ 20 µM

CCc1ccc(C(C#N)NC(=O)c2cn(CCNC(=O)c3ccc(OC)nn3)nn2)cc1 (stereo not shown) [Example 40, 6-Methoxy-pyridazine-3-carboxylic acid [2-(4-{[cyano-(4-ethyl-phenyl)-methyl]-carbamoyl}-[1,2,3]triazol-1-yl)-ethyl]-amide]
IC50 [1]: 4.06 µM | IC50 (β 1i (caspase-like)): ≥ 20 µM | IC50 [2]: ≥ 20 µM | IC50 (β 2c/2i (trypsin-like)): ≥ 20 µM

COc1ccc(C(=O)NCCn2cc(C(=O)NC(C#N)c3ccc4sccc4c3)nn2)c(OC)c1OC (stereo not shown) [Example 48, 1-[2-(2,3,4-Trimethoxy-benzoylamino)-ethyl]-1H-[1,2,3]triazole-4-carboxylic acid (benzo[b]thiophen-5-yl-cyano-methyl)-amide]
IC50 [1]: 0.201 µM | IC50 [2]: 16.3 µM | IC50 (β 2c/2i (trypsin-like)): ≥ 20 µM | IC50 (β 1c (caspase-like)): ≥ 20 µM

COc1ccc(C(=O)NCCn2cc(C(=O)NC(C#N)c3ccc4ccccc4c3)nn2)c(OC)c1OC (stereo not shown) [Example 49, 1-[2-(2,3,4-Trimethoxy-benzoylamino)-ethyl]-1H-[1,2,3]triazole-4-carboxylic acid (cyano-naphthalen-2-yl-methyl)-amide]
IC50 [1]: 0.338 µM | IC50 [2]: 12.5 µM | IC50 (β 2c/2i (trypsin-like)): ≥ 20 µM | IC50 (β 1c (caspase-like)): 19 µM

COc1ccc(C(=O)NCCn2cc(C(=O)NC(C#N)c3ccc(C4CC4)cc3)nn2)c(OC)c1OC (stereo not shown) [Example 58, 1-[2-(2,3,4-Trimethoxy-benzoylamino)-ethyl]-1H-[1,2,3]triazole-4-carboxylic acid [cyano-(4-cyclopropyl-phenyl)-methyl]-amide]
IC50 [1]: 0.159 µM | IC50 (β 1i (caspase-like)): ≥ 20 µM | IC50 [2]: ≥ 20 µM | IC50 (β 2c/2i (trypsin-like)): ≥ 20 µM

N#CC(NC(=O)c1cn(CCNC(=O)c2cc(Cl)ccc2Cl)nn1)c1ccc(C(F)(F)F)cc1 (stereo not shown) [Example 69, 1-[2-(2,5-Dichloro-benzoylamino)-ethyl]-1H-[1,2,3]triazole-4-carboxylic acid [cyano-(4-trifluoromethyl-phenyl)-methyl]-amide]
IC50 [1]: 3.79 µM | IC50 (β 1i (caspase-like)): ≥ 20 µM | IC50 [2]: ≥ 20 µM | IC50 (β 2c/2i (trypsin-like)): ≥ 20 µM

CCc1ccc(C(C#N)NC(=O)c2cn(CCNC(=S)c3ccc(OC)c(OC)c3OC)nn2)cc1 (stereo not shown) [Example 86, 1-[2-(2,3,4-Trimethoxy-thiobenzoylamino)-ethyl]-1H-[1,2,3]triazole-4-carboxylic acid [cyano-(4-ethyl-phenyl)-methyl]-amide]
IC50 [1]: 0.274 µM | IC50 (β 1i (caspase-like)): ≥ 20 µM | IC50 [2]: 16.3 µM | IC50 (β 2c/2i (trypsin-like)): ≥ 20 µM

Source: patent US20150299143A1, “SUBSTITUTED TRIAZOLE AND IMIDAZOLE COMPOUNDS” (HOFFMANN-LA ROCHE INC., priority 2012, published 2015)
